The values that follow come from ChEMBL document CHEMBL1124608, “Synthesis of acylguanidine analogues: inhibitors of ADP-induced platelet aggregation” (J Med Chem, 1989).

The subject of assay [1] is Rattus norvegicus. Nature of the assay: ADP-induced platelet aggregation activity was tested for oral activity in rats at dose 30 mg/kg. Format: functional.
Assay [2] concerns Rattus norvegicus. The assay can be described thus: ADP-induced platelet aggregation activity was tested for oral activity in rats at dose 100 mg/kg. The class given is functional.
The nature of assay [3]: Inhibitory concentration required to inhibit ADP-induced platelet aggregation in human platelet rich plasma. The class given is functional, cell-free.
The subject of assay [4] is Cavia porcellus. The assay can be described thus: ADP-induced platelet aggregation activity was tested for oral activity in guinea pigs at dose 100 mg/kg. The class given is functional.
A short description of assay [5]: Concentration required to inhibit in vitro ADP-induced platelet aggregation in human platelet rich plasma relative PGE1. Format: functional.
Assay [6] deals with Rattus norvegicus. The assay can be described thus: ADP-induced platelet aggregation activity was tested for oral activity in rats at dose 25 mg/kg. The class given is functional.
Assay [7] relates to Cavia porcellus. Nature of the assay: ADP-induced platelet aggregation activity was tested for oral activity in guinea pigs at dose 50 mg/kg. Format: functional.
The subject of assay [8] is Rattus norvegicus. The assay can be described thus: ADP-induced platelet aggregation activity was tested for oral activity in rats at dose 50 mg/kg. The class given is functional.
Assay [9] in a line: Inhibitory activity against ADP-induced platelet aggregation at concentration 1.0 ug/mL. The class given is functional. The following applies: Homo sapiens.
The nature of assay [10]: Inhibitory activity against ADP-induced platelet aggregation at concentration 10 ug/mL. The conditions noted are these: for inhibition at 10 µg/mL: Homo sapiens. The class given is functional, Homo sapiens.
For assay [11], the species on record is Homo sapiens. Nature of the assay: Activity against PRP following incubation for 30 min in human whole blood; Active. The class given is functional, tissue-based.
A short description of assay [12]: Inhibitory activity against ADP-induced platelet aggregation at concentration 3.2 ug/mL. The class given is functional, Homo sapiens.
The subject of assay [13] is Cavia porcellus. Nature of the assay: ADP-induced platelet aggregation activity was tested for oral activity in guinea pigs at dose 50 mg/kg.
Assay [14] is described as follows: Inhibitory activity against ADP-induced platelet aggregation at concentration 1 ug/mL. Format: functional, Homo sapiens.
Assay [15] concerns Cavia porcellus. Nature of the assay: ADP-induced platelet aggregation activity was tested for oral activity in guinea pigs at dose 30 mg/kg. Format: functional.
Assay [16] is filed under the species Homo sapiens. Nature of the assay: Activity against PRP following incubation for 30 min in human whole blood; Inactive. The class given is functional, tissue-based.
Assay [17] can be described thus: Inhibitory activity against ADP-induced platelet aggregation at concentration 10 ng/mL. Format: functional, Homo sapiens.
The nature of assay [18]: Inhibitory activity against ADP-induced platelet aggregation at concentration 32 ng/mL. The class given is functional, Homo sapiens.

The structures appear in SMILES notation. In brackets after ≈: the same amount, converted by molar mass. Several values for one entry are separate records, joined by “and”; a condition that tells them apart may be missing. Equal entries are not always repeated. Activity calls are given as the source filed them. The calls are words filed in the database; no cut-off is given here.

For orientation: IC50 means the point on the concentration scale where inhibition reaches its midpoint. Read a high IC50 as weaker potency. With `CN(CCCCCCN(C)C(=O)N(C(=NC1CCCCC1)N1CCOCC1)C1CCCCC1)C(=O)N(C(=NC1CCCCC1)N1CCOCC1)C1CCCCC1`, the results for the Aggregation with Rattus norvegicus [1], in the assay on Rattus norvegicus [2] and with Cavia porcellus [4] were 81.2%, 52% and 41%, respectively. For the same compound, in [3], the IC50 was 3.2 µg/mL (≈ 4.09 µM). In assay [5], this compound yielded a Relative potency of 0.003.
Consider `O=C(NCCCCCCNC(=O)N(C(=NC1CCCCC1)N1CCCCC1)C1CCCCC1)N(C(=NC1CCCCC1)N1CCCCC1)C1CCCCC1`, for which the Aggregation was determined as 46.2% in the assay with Rattus norvegicus [2]; 83.2% with Rattus norvegicus [6]; 48.7% in the assay with Cavia porcellus [4]; 47.7% with Cavia porcellus [7]; 86% with Rattus norvegicus [8]. The same compound registered an IC50 in assay [3] of 10 µg/mL (≈ 13.3 µM). The compound also came in with a Relative potency in assay [5] of 0.001.
In the assay on Rattus norvegicus [2], `O=C(NCCCCNC(=O)N(C(=NC1CCCCC1)N1CCOCC1)C1CCCCC1)N(C(=NC1CCCCC1)N1CCOCC1)C1CCCCC1` displayed an Aggregation of 73.5%. Also, it took 10 µg/mL (≈ 13.8 µM) to reach half-maximal inhibition in assay [3] (IC50). The compound further returned a Relative potency in assay [5] of 0.001.
What is called inhibition is the drop in the measured response relative to a control, in per cent. Higher therefore signals strong suppression. In assay [9], `O=C(NCc1cccc(CNC(=O)N(C(=NC2CCCCC2)N2CCOCC2)C2CCCCC2)c1)N(C(=NC1CCCCC1)N1CCOCC1)C1CCCCC1` yielded an inhibition at 1 µg/mL of 27%. Further, the IC50 in assay [3] was found to be 3.2 µg/mL (≈ 4.13 µM). This compound also came in with an inhibition at 10 µg/mL in assay [10] of 68%. Besides, the outcome in the assay listed under Homo sapiens [11] was Active. In [12] (Homo sapiens), this compound displayed an inhibition at 3.2 µg/mL of 40%. In addition, the Aggregation in the assay on Cavia porcellus [13] came to 19.3%. Moreover, the Relative potency in assay [5] came out at 0.003.
As for `O=C(N1CCN(C(=O)N(/C(=N/C2CCCCC2)N2CCOCC2)C2CCCCC2)CC1)N(/C(=N/C1CCCCC1)N1CCOCC1)C1CCCCC1`, the Aggregation in the assay on Rattus norvegicus [2] was 44.8%. Half-maximal inhibition in assay [3] (IC50) required 10 µg/mL (≈ 13.8 µM). The same compound yielded a Relative potency in assay [5] of 0.001.
What is called Inhibition is the relative decrease from the control value, in per cent. A higher Inhibition goes with a response far below the control. Take `O=C(NCCCCCCNC(=O)N(C(=NC1CCCCC1)N1CCOCC1)C1CCCCC1)N(C(=NC1CCCCC1)N1CCOCC1)C1CCCCC1`: the Inhibition is 27% in assay [14]; 85% in assay [10]; 38% and 62% in assay [12]. Moreover, 1 µg/mL produced 29% inhibition in [14] (Homo sapiens). Moreover, the Aggregation in the assay with Rattus norvegicus [2] came to 80.8%. Besides, the IC50 in assay [3] was found to be 3.2 µg/mL (≈ 4.24 µM). The compound also gave an inhibition at 10 µg/mL in [10] of 82%. Also, the result in the assay listed under Homo sapiens [11] was Active. The compound further gave a Relative potency in assay [5] of 0.003.
On to `CN(CCN(C)C(=O)N(C(=NC1CCCCC1)N1CCOCC1)C1CCCCC1)C(=O)N(C(=NC1CCCCC1)N1CCOCC1)C1CCCCC1`, for which the Aggregation was 100% in the assay with Rattus norvegicus [2], 0% with Cavia porcellus [4] and 62.7% with Cavia porcellus [15]. Further, half-maximal inhibition in [3] (IC50) required 3.2 µg/mL (≈ 4.4 µM). Further, the Relative potency in assay [5] is listed as 0.003.
Compound `O=C(NCCCCCCCCCNC(=O)N(C(=NC1CCCCC1)N1CCOCC1)C1CCCCC1)N(C(=NC1CCCCC1)N1CCOCC1)C1CCCCC1` had an IC50 in assay [3] of 10 µg/mL (≈ 12.5 µM). For the same compound, the Relative potency in assay [5] is 0.001.
As to `O=C(NCc1cc(CNC(=O)N(C(=NC2CCCCC2)N2CCOCC2)C2CCCCC2)cc(CNC(=O)N(C(=NC2CCCCC2)N2CCOCC2)C2CCCCC2)c1)N(C(=NC1CCCCC1)N1CCOCC1)C1CCCCC1`, the outcome in the assay filed under Homo sapiens [16] was inactive. Further, the IC50 in [3] is 10 µg/mL (≈ 8.9 µM). In addition, the Relative potency in [5] was 0.001.
The compound `O=C(NCCCCCCCCNC(=O)N(C(=NC1CCCCC1)N1CCOCC1)C1CCCCC1)N(C(=NC1CCCCC1)N1CCOCC1)C1CCCCC1` gave an IC50 in assay [3] of 10 µg/mL (≈ 12.8 µM). For the same compound, in assay [5], the Relative potency was determined as 0.001.
In the assay on Rattus norvegicus [2], `Cl.Cl.O=C(NCCCCCCNC(=O)N(/C(=N/C1CCCCC1)N1CCOCC1)C1CCCCC1)N(/C(=N\C1CCCCC1)N1CCOCC1)C1CCCCC1` registered an Aggregation of 84.5%. This compound displayed an IC50 in assay [3] of 10 µg/mL. The Relative potency in [5] is 0.001.
For `O=C(NCCCCCCCNC(=O)N(C(=NC1CCCCC1)N1CCOCC1)C1CCCCC1)N(C(=NC1CCCCC1)N1CCOCC1)C1CCCCC1` the same measures were 70.5%, 10 µg/mL (≈ 13 µM) and 0.001.
In the assay with Rattus norvegicus [2], `O=C(NCCCCCNC(=O)N(C(=NC1CCCCC1)N1CCOCC1)C1CCCCC1)N(C(=NC1CCCCC1)N1CCOCC1)C1CCCCC1` had an Aggregation of 41%. Also, the IC50 in [3] was 10 µg/mL (≈ 13.5 µM). Moreover, the Relative potency in assay [5] is on record as 0.001.
For `CN(Cc1cccc(CN(C)C(=O)N(C(=NC2CCCCC2)N2CCOCC2)C2CCCCC2)c1)C(=O)N(C(=NC1CCCCC1)N1CCOCC1)C1CCCCC1` the same measures were 38.5%, 3.2 µg/mL (≈ 3.98 µM) and 0.003.
Consider `CCCCC[C@H](O)/C=C/[C@H]1[C@H](O)CC(=O)[C@@H]1CCCCCCC(=O)O` [ALPROSTADIL], for which the Inhibition in [17] is 56% and 28% and 37%; in assay [18], 94% and 90% and 72%. Besides, half-maximal inhibition in [3] (IC50) was put at 0.01 µg/mL (≈ 0.0282 µM). The same compound returned a Relative potency in assay [5] of 1.
